Columns and labels:
[1] = Inhibition of GSK3 (unknown origin); design: species or system Homo sapiens
[2] = Inhibition of p70S6K (unknown origin); design: species or system Homo sapiens
[3] = biological target: Ribosomal protein S6 kinase alpha-1 (Homo sapiens, UniProt Q15418); assay: Inhibition of RSK1 (unknown origin)
physchem [4] = conditions: octanol/water
Description: Lipophilicity, log P of the compound

[5] = Binding affinity to human wild type HIF2alpha assessed as dissociation constant by calorimetry assay
[6] = Inhibition of HIF (unknown origin); design: species or system Homo sapiens
[7] = biological target: T1, Amyloid-beta precursor protein (Homo sapiens, UniProt P05067); assay: Inhibition of amyloid beta (unknown origin) aggregation at 5 uM relative to control
[8] = Drug concentration in ipsilateral striatum of malonate induced huntington disease rat measured after 24 hrs by LC/MS-MS analysis; type: ADME, tissue-based; conditions: read-out: Ct
[9] = Half life in Malonate induced Huntington disease rat; type: ADME; conditions: in vivo
[10] = Drug concentration in ipsilateral striatum of malonate induced huntington disease rat measured after 6 hrs by LC/MS-MS analysis; type: ADME, tissue-based; conditions: read-out: Ct
Caspase-1 = Caspase-1 (Homo sapiens, UniProt P29466); assay: Inhibition of caspase-1 (unknown origin)
Caspase-7 = Caspase-7 (Homo sapiens, UniProt P55210); assay: Inhibition of caspase-7 (unknown origin)
Caspase-3 = Caspase-3 (Homo sapiens, UniProt P42574); assay: Inhibition of caspase-3 (unknown origin)
[11] = Cmax in Malonate induced Huntington disease […] model at 1.5 nmol administered intra striatal measured for 1 hr by LC/MS-MS analysis; type: ADME; design: time 1 hrs, dose 1.5 nmol; conditions: in vivo
NT2 = assay: Inhibition of camptothecin induced apoptosis in human NT2 cells incubated for 5 hrs in presence of camptothecin by ELISA method; type: functional, cell-based; conditions: NT2, 5 h
Caspase-8 = Caspase-8 (Homo sapiens, UniProt Q14790); assay: Inhibition of caspase-8 (unknown origin)
[12] = Anti-inflammatory activity against human PBMCs assessed as reduction in LPS-induced TNF-alpha release by ELISA analysis; type: functional, cell-based; conditions: PBMC
Mus musculus = species on record: Mus musculus; assay: Anti-inflammatory activity in LPS-induced inflammatory mouse model assessed as reduction in neutrophil influx; type: functional
Rattus norvegicus [13] = species on record: Rattus norvegicus; assay: Anti-inflammatory activity against ovalbumin induced lung inflammatory rat model assessed as reduction in eosinophil influx; type: functional
[14] = biological target: 3',5'-cyclic-AMP phosphodiesterase 4D (Homo sapiens, UniProt Q08499); assay: Inhibition of human recombinant PDE4D
HCT-116 [15] = assay: Antiproliferative activity against human HCT-116 cells assessed as reduction in cell viability by MTT assay; type: functional, cell-based
physchem [16] = conditions: octanol/water; remark: listed apart in the source
Description: Lipophilicity, log D of the compound

[17] = biological target: T1, Amyloid-beta precursor protein; assay: Inhibition of amyloid beta 42 in human HEK293 cells; type: cell-based
[18] = biological target: Tumor necrosis factor (Homo sapiens) (UniProt P01375); assay: Inhibition of TNF-alpha secretion in human THP-1 cells; design: concentration or dose not given beside the values; conditions: concentration not given here
[19] = biological target: T2, c-Jun N-terminal kinase, JNK (Homo sapiens) (UniProt P45983+P53779+P45984); assay: Inhibition of JNK (unknown origin) at 1.0 uM relative to control; type: protein assay
[20] = Neuroprotective activity against neurons (unknown origin) assessed as rescue by measuring cytokine level at 10 uM relative to control; type: functional, Homo sapiens, Neuron
[21] = biological target: T3, MAP kinase p38 (Homo sapiens) (UniProt O15264+Q15759+Q16539+P53778); assay: Inhibition of p38 (unknown origin) at 10 uM relative to control; type: protein assay
[22] = biological target: T3, MAP kinase p38 (Homo sapiens); assay: Inhibition of p38 (unknown origin) at 1.0 uM relative to control; type: protein assay
[23] = Drug concentration in mouse plasma at 10 mg/kg, iv administered once daily measured after 2 hrs; type: ADME, organism-based
THP-1 [24] = assay: Antinflammatory activity in human THP-1 cells assessed as reduction of TNF-alpha at 1.0 uM relative to control; type: functional
[25] = biological target: Mitogen-activated protein kinase 14 (Homo sapiens) (UniProt Q16539); assay: Inhibition of recombinant p38alpha MAPK (unknown origin) at 10 uM preincubated for 10 mins followed by substrate addition and measured after 40 mins in the presence of ATP by ADP-Glo assay; conditions: time 60.0 min
[26] = Drug concentration in mouse brain at 10 mg/kg, iv administered once daily measured after 2 hrs; type: ADME, organism-based; conditions: read-out: Ct
THP-1 [27] = assay: Antinflammatory activity in human THP-1 cells assessed as reduction of TNF-alpha at 10 uM relative to control; type: functional; design: scale not given: the % may be the effect or the level left
[28] = Neuroprotective activity against neurons (unknown origin) assessed as rescue by measuring cytokine level at 1.0 uM relative to control; type: functional, Homo sapiens, Neuron
[29] = biological target: T2, c-Jun N-terminal kinase, JNK (Homo sapiens); assay: Inhibition of JNK (unknown origin) at 10 uM relative to control; type: protein assay
Rattus norvegicus [30] = species on record: Rattus norvegicus; assay: Antihypertensive activity in spontaneously hypertensive rat model assessed as reduction in pulmonary arterial pressure; type: functional
HASMC = assay: Antiproliferative activity against human HASMC cells assessed as inhibition of cell proliferation measured after 24 hrs by MTT assay; type: functional, cell-based
Rattus norvegicus [31] = species on record: Rattus norvegicus; assay: Antihypertensive activity in spontaneously hypertensive rat model assessed as reduction in systemic arterial pressure; type: functional
[32] = biological target: Prostaglandin G/H synthase 1 (Homo sapiens, UniProt P23219); assay: Inhibition of COX1 (unknown origin)
[33] = Dissociation constant, pKa of compound; type: physicochemical
[34] = biological target: Prostaglandin G/H synthase 2 (Homo sapiens, UniProt P35354); assay: Inhibition of COX2 (unknown origin)
[35] = biological target: Aldo-keto reductase family 1 member C3 (Homo sapiens, UniProt P42330); assay: Inhibition of AKR1C3 (unknown origin)
HCT-116 [36] = assay: cells; conditions: Homo sapiens
HT-29 = assay: cells; conditions: Homo sapiens
Description: Antiproliferative activity against human HT-29 cells assessed as reduction in cell viability

[37] = Lipophilicity, log D of compound at pH 7.4; type: physicochemical; conditions: buffer
LNCaP = assay: Antiproliferative activity against human LNCaP cells assessed as reduction in cell viability; type: functional, cell-based
HL-60 = assay: Antiproliferative activity against (unknown origin) HL-60 assessed as inhibition of cell proliferation by MTT assay; type: functional, cell-based; conditions: Homo sapiens
Daudi = assay: Antiproliferative activity against human Daudi assessed as inhibition of cell proliferation by MTT assay; type: functional, cell-based
c-Myc/c-Max = c-Myc/c-Max (Homo sapiens, UniProt P01106+P61244); assay: Inhibition of Myc/Max (unknown origin); type: protein assay
Lactate dehydrogenase = Lactate dehydrogenase (Plasmodium falciparum, UniProt Q0PJ46); assay: Inhibition of recombinant Plasmodium falciparum LDH
[38] = Inhibition of human recombinant LDH
Plasmodium falciparum [39] = assay: Antimalarial activity against drug sensitive Plasmodium falciparum 3D7; type: functional, organism-based
[40] = Binding affinity to Plasmodium falciparum LDH assessed as inhibitory constant
Plasmodium falciparum [41] = assay: Antimalarial activity against drug resistant Plasmodium falciparum KI; type: functional, organism-based
Rattus norvegicus [42] = assay: Antihypertensive activity in spontaneously hypertensive rat model assessed as change in heart rate at 1 umol/kg, po measured after 3 hrs; type: functional
Rattus norvegicus [43] = assay: Antihypertensive activity in spontaneously hypertensive rat model assessed as change in blood pressure at 1 mg/kg, po measured after 3 hrs; type: functional
Rattus norvegicus [44] = assay: Antihypertensive activity in spontaneously hypertensive rat model assessed as change in heart rate at 1 mmol/Kg, po measured after 10 hrs; type: functional
Rattus norvegicus [45] = assay: Antihypertensive activity in spontaneously hypertensive rat model assessed as change in blood pressure at 1 mg/kg, po measured after 10 hrs; type: functional
Rattus norvegicus [46] = assay: Antihypertensive activity in spontaneously hypertensive rat model assessed as change in heart rate at 10 mg/Kg, po measured after 6 hrs; type: functional

T1 sequence (P05067 whole entry): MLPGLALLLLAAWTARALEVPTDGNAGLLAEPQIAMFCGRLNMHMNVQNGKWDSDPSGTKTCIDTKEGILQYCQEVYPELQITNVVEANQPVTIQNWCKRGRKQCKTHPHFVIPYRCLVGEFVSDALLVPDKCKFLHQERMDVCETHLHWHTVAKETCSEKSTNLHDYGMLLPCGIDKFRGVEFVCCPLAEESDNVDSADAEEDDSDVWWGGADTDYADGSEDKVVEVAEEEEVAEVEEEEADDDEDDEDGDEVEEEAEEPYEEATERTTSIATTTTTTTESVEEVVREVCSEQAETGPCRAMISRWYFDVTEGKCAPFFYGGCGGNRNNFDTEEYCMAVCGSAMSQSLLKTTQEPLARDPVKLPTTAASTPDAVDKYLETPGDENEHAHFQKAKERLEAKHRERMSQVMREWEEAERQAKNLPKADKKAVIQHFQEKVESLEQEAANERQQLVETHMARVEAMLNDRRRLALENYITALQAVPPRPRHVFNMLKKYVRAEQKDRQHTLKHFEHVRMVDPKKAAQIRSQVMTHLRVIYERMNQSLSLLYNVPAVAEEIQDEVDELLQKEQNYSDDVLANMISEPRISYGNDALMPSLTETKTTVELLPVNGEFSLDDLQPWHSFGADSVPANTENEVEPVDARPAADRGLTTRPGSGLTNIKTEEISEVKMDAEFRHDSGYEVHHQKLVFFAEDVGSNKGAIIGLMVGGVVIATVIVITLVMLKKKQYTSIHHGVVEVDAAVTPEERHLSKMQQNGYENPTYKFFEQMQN
Sequence of Caspase-8 (Q14790 217-374 limits assumed): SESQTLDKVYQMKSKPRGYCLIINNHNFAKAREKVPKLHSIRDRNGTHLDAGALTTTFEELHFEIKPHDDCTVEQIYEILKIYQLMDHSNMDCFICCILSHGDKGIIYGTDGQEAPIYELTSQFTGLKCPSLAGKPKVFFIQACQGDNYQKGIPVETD
Sequence of Caspase-8 (Q14790 385-479 limits assumed): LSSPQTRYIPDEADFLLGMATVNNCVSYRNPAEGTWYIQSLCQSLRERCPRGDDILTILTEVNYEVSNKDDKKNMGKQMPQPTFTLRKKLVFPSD
Sequence of 3',5'-cyclic-AMP phosphodiesterase 4D (Q08499 whole entry): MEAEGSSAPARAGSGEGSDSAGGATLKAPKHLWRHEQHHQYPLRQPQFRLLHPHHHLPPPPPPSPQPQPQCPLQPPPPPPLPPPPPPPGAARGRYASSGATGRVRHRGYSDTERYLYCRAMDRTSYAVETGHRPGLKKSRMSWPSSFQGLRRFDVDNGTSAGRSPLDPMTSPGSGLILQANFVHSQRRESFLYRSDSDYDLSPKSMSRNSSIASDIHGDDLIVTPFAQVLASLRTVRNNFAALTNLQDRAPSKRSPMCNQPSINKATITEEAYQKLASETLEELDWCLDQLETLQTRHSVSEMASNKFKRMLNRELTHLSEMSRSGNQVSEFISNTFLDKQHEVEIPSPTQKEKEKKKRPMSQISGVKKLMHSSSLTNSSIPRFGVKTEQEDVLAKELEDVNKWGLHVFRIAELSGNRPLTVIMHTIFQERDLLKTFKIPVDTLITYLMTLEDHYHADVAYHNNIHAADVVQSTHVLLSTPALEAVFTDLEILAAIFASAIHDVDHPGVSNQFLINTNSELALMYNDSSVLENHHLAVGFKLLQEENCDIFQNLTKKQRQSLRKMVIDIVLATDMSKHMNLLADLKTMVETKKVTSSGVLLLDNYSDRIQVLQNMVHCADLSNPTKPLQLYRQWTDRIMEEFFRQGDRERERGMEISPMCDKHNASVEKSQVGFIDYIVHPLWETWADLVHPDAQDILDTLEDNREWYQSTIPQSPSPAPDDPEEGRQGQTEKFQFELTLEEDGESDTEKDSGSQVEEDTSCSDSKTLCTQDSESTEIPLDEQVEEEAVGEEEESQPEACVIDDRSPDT
Sequence of c-Myc/c-Max (P01106 whole entry): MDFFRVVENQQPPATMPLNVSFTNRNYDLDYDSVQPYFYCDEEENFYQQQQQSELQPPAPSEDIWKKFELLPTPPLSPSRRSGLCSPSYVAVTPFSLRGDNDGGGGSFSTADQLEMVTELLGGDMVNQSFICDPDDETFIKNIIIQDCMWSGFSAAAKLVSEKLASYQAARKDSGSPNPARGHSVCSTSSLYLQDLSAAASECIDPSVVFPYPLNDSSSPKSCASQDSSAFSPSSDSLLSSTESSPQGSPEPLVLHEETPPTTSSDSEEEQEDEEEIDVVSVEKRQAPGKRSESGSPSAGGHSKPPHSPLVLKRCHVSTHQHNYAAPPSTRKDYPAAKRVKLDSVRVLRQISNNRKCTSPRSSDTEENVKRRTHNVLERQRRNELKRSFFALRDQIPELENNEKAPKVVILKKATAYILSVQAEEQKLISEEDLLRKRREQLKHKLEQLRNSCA
Sequence of c-Myc/c-Max (P61244 whole entry): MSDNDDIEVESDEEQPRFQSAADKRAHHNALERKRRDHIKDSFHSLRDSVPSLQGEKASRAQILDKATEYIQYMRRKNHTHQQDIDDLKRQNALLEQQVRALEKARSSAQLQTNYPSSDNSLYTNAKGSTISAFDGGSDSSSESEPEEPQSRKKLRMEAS
Sequence of Prostaglandin G/H synthase 1 (P23219 whole entry): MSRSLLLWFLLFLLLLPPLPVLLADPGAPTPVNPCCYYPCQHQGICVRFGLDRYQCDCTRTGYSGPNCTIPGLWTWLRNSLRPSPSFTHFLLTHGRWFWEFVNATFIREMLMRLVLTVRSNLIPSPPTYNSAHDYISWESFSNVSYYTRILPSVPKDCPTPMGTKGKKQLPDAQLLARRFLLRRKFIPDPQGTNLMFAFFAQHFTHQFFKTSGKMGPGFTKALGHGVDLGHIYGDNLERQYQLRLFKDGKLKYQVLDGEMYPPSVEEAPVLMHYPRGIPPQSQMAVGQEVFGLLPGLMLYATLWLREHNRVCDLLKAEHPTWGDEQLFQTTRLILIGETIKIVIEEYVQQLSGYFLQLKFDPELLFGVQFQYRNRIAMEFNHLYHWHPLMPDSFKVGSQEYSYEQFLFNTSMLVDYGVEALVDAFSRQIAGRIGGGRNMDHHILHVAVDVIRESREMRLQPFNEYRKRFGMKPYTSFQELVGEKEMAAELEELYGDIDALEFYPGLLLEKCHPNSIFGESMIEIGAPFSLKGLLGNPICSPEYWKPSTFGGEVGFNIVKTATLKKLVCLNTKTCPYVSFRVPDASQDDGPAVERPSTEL
Sequence of Lactate dehydrogenase (Q0PJ46 whole entry): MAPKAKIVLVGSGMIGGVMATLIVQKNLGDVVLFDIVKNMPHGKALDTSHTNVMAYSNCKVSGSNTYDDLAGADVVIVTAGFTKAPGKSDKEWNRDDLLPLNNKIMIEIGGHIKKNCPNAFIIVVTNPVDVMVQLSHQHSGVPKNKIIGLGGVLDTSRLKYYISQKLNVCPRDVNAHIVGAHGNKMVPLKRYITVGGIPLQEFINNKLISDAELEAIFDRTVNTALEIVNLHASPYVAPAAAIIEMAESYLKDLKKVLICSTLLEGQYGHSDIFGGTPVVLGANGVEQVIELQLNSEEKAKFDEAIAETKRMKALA
Sequence of Prostaglandin G/H synthase 2 (P35354 whole entry): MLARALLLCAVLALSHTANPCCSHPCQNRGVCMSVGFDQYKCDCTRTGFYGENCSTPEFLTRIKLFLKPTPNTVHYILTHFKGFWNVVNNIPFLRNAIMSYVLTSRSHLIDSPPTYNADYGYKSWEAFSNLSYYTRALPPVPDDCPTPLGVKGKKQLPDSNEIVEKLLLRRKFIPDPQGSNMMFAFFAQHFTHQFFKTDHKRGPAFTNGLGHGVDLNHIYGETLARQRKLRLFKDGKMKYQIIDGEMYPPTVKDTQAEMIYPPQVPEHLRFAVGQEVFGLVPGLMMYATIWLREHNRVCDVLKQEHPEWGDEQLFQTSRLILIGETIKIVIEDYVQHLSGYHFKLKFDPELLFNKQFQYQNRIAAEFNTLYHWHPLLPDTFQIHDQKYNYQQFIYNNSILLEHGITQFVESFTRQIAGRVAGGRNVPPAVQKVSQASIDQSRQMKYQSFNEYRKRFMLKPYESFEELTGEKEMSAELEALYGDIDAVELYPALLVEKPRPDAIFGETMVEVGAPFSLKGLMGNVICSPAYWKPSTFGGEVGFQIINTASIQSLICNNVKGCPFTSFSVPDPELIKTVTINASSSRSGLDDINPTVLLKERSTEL
Sequence of Caspase-7 (P55210 24-198 limits assumed): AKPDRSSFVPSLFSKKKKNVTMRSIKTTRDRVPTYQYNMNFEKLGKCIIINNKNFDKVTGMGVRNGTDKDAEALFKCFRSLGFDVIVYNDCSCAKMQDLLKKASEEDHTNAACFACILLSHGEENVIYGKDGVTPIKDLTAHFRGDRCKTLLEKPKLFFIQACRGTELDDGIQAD
Sequence of Caspase-7 (P55210 207-303 limits assumed): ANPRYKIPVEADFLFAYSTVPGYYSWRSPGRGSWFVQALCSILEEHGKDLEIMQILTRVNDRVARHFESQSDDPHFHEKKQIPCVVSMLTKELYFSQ
Sequence of Tumor necrosis factor (Homo sapiens) (P01375 whole entry, looked up): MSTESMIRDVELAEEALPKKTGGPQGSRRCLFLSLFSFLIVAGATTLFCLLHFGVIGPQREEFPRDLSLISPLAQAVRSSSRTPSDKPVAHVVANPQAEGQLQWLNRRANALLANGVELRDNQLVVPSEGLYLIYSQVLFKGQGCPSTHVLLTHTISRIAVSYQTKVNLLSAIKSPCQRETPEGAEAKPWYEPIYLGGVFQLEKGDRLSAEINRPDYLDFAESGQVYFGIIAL
Sequence of Mitogen-activated protein kinase 14 (Homo sapiens) (Q16539 whole entry): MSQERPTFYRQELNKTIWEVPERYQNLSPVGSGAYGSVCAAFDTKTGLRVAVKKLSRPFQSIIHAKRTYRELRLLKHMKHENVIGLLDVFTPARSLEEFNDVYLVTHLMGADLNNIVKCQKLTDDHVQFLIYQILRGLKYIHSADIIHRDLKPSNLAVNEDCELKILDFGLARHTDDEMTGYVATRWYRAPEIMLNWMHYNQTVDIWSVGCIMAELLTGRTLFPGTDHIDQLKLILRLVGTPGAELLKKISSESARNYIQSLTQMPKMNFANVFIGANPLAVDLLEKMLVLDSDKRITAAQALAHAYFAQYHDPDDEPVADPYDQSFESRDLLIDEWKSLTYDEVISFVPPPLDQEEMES

## CCn1c(-c2nonc2N)nc2cnccc21
[1]
  IC50: 33 nM
[2]
  IC50: 70 nM
[3]
  IC50: 24 nM

## O=[N+]([O-])c1c(Nc2cc(F)cc(Cl)c2)ccc2nonc12
Physchem [4]
  logP: 3.99
[5]
  Kd: 80 nM
[6]
  IC50: 100 nM

## OC(c1cccc(-c2cc(NCc3ccccc3)c3nonc3c2)c1)C(F)(F)F (stereo unspecified)
[7]
  inhibition: 57.1%

## CCCCCCN(C)CC(=O)C(CC(=O)O)NC(=O)[C@H](CC)n1cc(C(C)(C)C)nc(NCc2nonc2C)c1=O (stereo partly specified)
[8]
  concentration at 24 h: 100 nM
[9]
  half-life: 3 h
[10]
  concentration at 6 h: 5100 nM
Caspase-1
  IC50: 67 nM
Caspase-7
  IC50: 42 nM
Caspase-3
  IC50: 6 nM
[11]
  Cmax: 32200 nM
NT2
  EC50: 21 nM
Caspase-8
  IC50: 6480 nM

## O=C(O)[C@H]1CC[C@H](c2cc3cccnc3c(-c3cccc(F)c3)n2)CC1
[12]
  EC50: 126 nM
Mus musculus
  ED50: 0.032 µmol/kg
Rattus norvegicus [13]
  ED50: 0.0034 µmol/kg
[14]
  IC50: 41 nM

## O=C(Nc1ccc(C(F)(F)F)cc1)Nc1nonc1-c1ccc(Cl)cc1
HCT-116 [15]
  EC50: 2500 nM

## O=[N+]([O-])c1ccccc1 [NITROBENZENE]
Physchem [16]
  logD: 1.6

## CC(C)CC(C(=O)O)c1cc(Cl)c(OCC2CC2)c(-c2ccc3nonc3c2)c1 (stereo unspecified)
[17]
  EC50: 270 nM

## CCCOc1ccc(Nc2nc3nonc3nc2N2CCC(Oc3ccc(Cl)cc3)CC2)cc1
[18]
  inhibition: 74%
[19]
  inhibition: 49%
[20]
  Activity: 51%
[21]
  inhibition: 99%
[22]
  inhibition: 37%
[23]
  concentration at 2 h: 430 nM
THP-1 [24]
  inhibition at 1 µM: 51%
[25]
  inhibition: 99%
[26]
  concentration at 2 h: 800 nM
THP-1 [27]
  Activity: 74%
[28]
  Activity: 33%
[29]
  inhibition: 98%

## O=c1[nH]ccc2cc(OC3CCNCC3)ccc12 [SAR-407899 FREE BASE]
Rattus norvegicus [30]
  Activity: -6 mmHg
HASMC
  IC50: 122 nM
Rattus norvegicus [31]
  Activity: -19 mmHg

## COc1ccc2c(c1)c(Cc1nonc1O)c(C)n2C(=O)c1ccccc1
[32]
  IC50: > 100000 nM
[33]
  pKa: 4.09
[34]
  IC50: > 100000 nM
[35]
  IC50: 300 nM
HCT-116 [36]
  EC50: 78900 nM
HT-29
  EC50: 135000 nM
[37]
  logD: 1.8
LNCaP
  EC50: 141000 nM

## O=C(O)c1ccc(-c2ccccc2Nc2ccc([N+](=O)[O-])c3nonc23)cc1
HL-60
  EC50: 148000 nM
Daudi
  EC50: 56000 nM
c-Myc/c-Max
  IC50: 33000 nM

## CC(C)CC(C(=O)O)c1cc(Cl)c(OCC2CC2)c(-c2ccc(C(F)(F)F)cc2)c1 (stereo unspecified)
[17]
  EC50: 70 nM

## O=C(O)c1nsnc1O
Lactate dehydrogenase
  IC50: 140 nM
[38]
  IC50: 10300 nM
Plasmodium falciparum [39]
  EC50: 75300 nM
  EC90: > 170000 nM
[40]
  Ki: 290 nM
Plasmodium falciparum [41]
  EC50: 144000 nM

## CCn1c(-c2nonc2N)nc2cnc(Oc3cccc(NC(=O)c4ccc(OCCN5CCOCC5)cc4)c3)cc21 [GSK-269962A]
Rattus norvegicus [42]
  Activity: 30 bpm
Rattus norvegicus [43]
  Activity: -20 mmHg
Rattus norvegicus [44]
  Activity: 0 bpm
Rattus norvegicus [45]
  Activity: 0 mmHg
Rattus norvegicus [46]
  Activity: 10 bpm

Reference: ChEMBL document CHEMBL5236544, “Furazans in Medicinal Chemistry” (J Med Chem, 2021)
